# Results: patent US11439667B2, “Compositions and methods for expansion of embryonic hematopoietic stem cells” (Fred Hutchinson Cancer Research Center, priority 2013, dated 2022)
# Key:
# [1] = tested on: mouse AGM VE-Cadherin+/CD45+ cells; assay: ex vivo expansion of AGM-derived embryonic HSPC, surface phenotype by FACS; format: cell-based; conditions: combined with Notch agonist (such as Delta1ext-IgG) and one or more growth factors
# Source text: Embryos were harvested from pregnant females at 9.5 to 11.5 dpc, dissected free of maternal tissue and washed extensively in PBS containing 10% fetal bovine serum (FBS). Embryo age was precisely time by counting somite numbers. Yolks sac was dissected free from the embryo. For AGM dissections, 30 gauge needles were used to remove the caudal and rostral portions of the embryo above the forelimbs and below the hindlimbs, and subsequently dissect off the dorsal somite tissue and ventral abdominal contents. The embryo was then splayed open lying on its dorsal surface and remaining tissues surrounding the urogenital ridges were further dissected, leaving the intact AGM containing the dorsal aorta centrally. For embryos prior to AGM stage (E9.5 or less), the P-Sp region was dissected by removing the rostral and caudal portions of the embryo. Dissected yolk sac or AGM/P-Sp tissues were pooled and treated with 0.25% collagenase (Stem Cell Technologies, Vancouver, Canada) for 25-30 minutes at 37° C., pipetted to single cell suspension, and washed with PBS containing 10% FBS. For Ly6a-eGFP transgenic embryos, dissected embryos were processed separately and pooled for sorting, if indicated, following confirmation of GFP expression. […]
# ALK7 = target: T1, ALK7 (Homo sapiens, UniProt Q8NER5); conditions: cited from earlier work
# T1 sequence (Q8NER5 21-493): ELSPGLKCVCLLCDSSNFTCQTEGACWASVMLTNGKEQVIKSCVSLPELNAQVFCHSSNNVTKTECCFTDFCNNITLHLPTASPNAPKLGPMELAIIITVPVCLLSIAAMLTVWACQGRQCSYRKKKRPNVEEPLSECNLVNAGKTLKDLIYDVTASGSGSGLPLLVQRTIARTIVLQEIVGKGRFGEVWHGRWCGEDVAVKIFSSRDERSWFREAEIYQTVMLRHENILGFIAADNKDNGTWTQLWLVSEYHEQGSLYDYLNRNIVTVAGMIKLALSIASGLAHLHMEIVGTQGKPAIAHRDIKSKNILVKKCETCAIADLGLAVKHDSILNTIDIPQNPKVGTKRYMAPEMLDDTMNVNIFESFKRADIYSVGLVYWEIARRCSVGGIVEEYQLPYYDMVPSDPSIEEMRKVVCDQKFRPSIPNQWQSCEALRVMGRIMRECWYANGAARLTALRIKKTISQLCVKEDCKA
# human osteosarcoma cells = conditions: cited from earlier work
# [2] = tested on: ESC-derived endothelial cells; conditions: cited from earlier work
# human ESC = conditions: Wang C, et al. Cell Res. 2012; cited from earlier work
structure (smiles),measurement,setting,value
"NC(=O)c1ccc(-c2nc(-c3ccc4c(c3)OCO4)c(-c3ccccn3)[nH]2)cc1 [SB431542, 4-[4-(1,3-benzodioxol-5-yl)-5-(2-pyridinyl)-1H-imidazol-2-yl]benzamide]",effect on expansion of the eHSC when combined with Notch agonist and growth factors,[1],additive and/or synergistic effect
same,inhibition of ALK7,ALK7,potent and selective inhibitor
same,effect on TGF-β-induced proliferation of human osteosarcoma cells,human osteosarcoma cells,suppress
same,"effect on proliferation, differentiation and sheet formation of ESC-derived endothelial cells",[2],stimulate
same,effect on general hematopoiesis from human ESC,human ESC,"enhance general hematopoiesis, though not engrafting HSC"
